Laboratory results: ChEMBL document CHEMBL1133902, “Biflavonoids as novel antituberculosis agents” (2001)
Values after ≈ are worked out from the molar mass of the structure shown.

test system: Mycobacterium tuberculosis; assay: Antituberculosis activity against Mycobacterium tuberculosis at a concentration of 12.5 ug/mL; assay type: functional

Question: With O=c1cc(-c2ccc(Oc3c(-c4cccc([N+](=O)[O-])c4)oc4ccccc4c3=O)cc2)oc2ccccc12 as the compound, how does the inhibition at 12.5 µg/mL read?
Answer: Its inhibition at 12.5 µg/mL is 61%.

Question: Which inhibition at 12.5 µg/mL does the source give for COc1ccc(-c2cc(=O)c3c(OC)cc(OC)c(C4C(=O)c5c(OC)cc(OC)cc5OC4c4ccc(OC)cc4)c3o2)cc1 (centres undefined) here?
Answer: Its inhibition at 12.5 µg/mL is 95%.

Question: How did the inhibition at 12.5 µg/mL turn out when O=C1CC(c2ccc(O)cc2)Oc2cc(O)c(-c3c(O)cc(O)c4c3OC(c3ccc(O)cc3)CC4=O)c(O)c21 (centres undefined) was run?
Answer: The inhibition at 12.5 µg/mL was 0%.

Question: With COc1ccc(-c2cc(=O)c3c(OC)c(-c4cc(OC)ccc4-c4cc(=O)c5c(OC)cc(OC)cc5o4)c(OC)cc3o2)cc1 as the compound, how does the inhibition at 12.5 µg/mL read?
Answer: Its inhibition at 12.5 µg/mL is 1%.

Question: With O=c1cc(-c2cccc(-c3cccc4c(=O)cc(-c5ccccc5)oc34)c2)oc2ccccc12 as the compound, how does the inhibition at 12.5 µg/mL read?
Answer: The inhibition at 12.5 µg/mL was 49%.

Question: For COc1ccc2c(c1)OC(c1ccccc1)C(C1C(=O)c3ccc(OC)cc3OC1c1ccccc1)C2=O (centres undefined), which inhibition at 12.5 µg/mL is on record?
Answer: Its inhibition at 12.5 µg/mL is 0%.

Question: For CC(=O)Oc1ccc(C2CC(=O)c3c(cc(OC(C)=O)c(-c4c(OC(C)=O)cc(OC(C)=O)c5c4OC(c4ccc(OC(C)=O)cc4)CC5=O)c3OC(C)=O)O2)cc1 (centres undefined), which inhibition at 12.5 µg/mL is on record?
Answer: Its inhibition at 12.5 µg/mL is 0%.

Question: For O=C1c2c(O)cc(O)cc2OC(c2ccc(O)cc2)C1c1c(O)cc(O)c2c(=O)cc(-c3ccc(O)c(O)c3)oc12 (centres undefined), which inhibition at 12.5 µg/mL is on record?
Answer: The inhibition at 12.5 µg/mL was 0%.

Question: For COc1ccc(C2CC(=O)c3c(OC)cc(OC)c(C4C(=O)c5c(OC)cc(OC)cc5OC4c4ccc(OC)cc4)c3O2)cc1 (centres undefined), which inhibition at 12.5 µg/mL is on record?
Answer: Its inhibition at 12.5 µg/mL is 87%.

Question: For COc1ccc(C2CC(=O)c3c(cc(OC)c(-c4c(OC)cc5c(c4OC)C(=O)CC(c4ccc(OC)cc4)O5)c3OC)O2)cc1 (centres undefined), which inhibition at 12.5 µg/mL is on record?
Answer: The inhibition at 12.5 µg/mL was 2%.

Question: Which inhibition at 12.5 µg/mL does the source give for O=C1CC(c2ccc(O)c(O)c2)Oc2c1c(O)cc(O)c2C1C(=O)c2c(O)cc(O)cc2OC1c1ccc(O)cc1 (centres undefined) here?
Answer: The inhibition at 12.5 µg/mL was 0%.

Question: Which inhibition at 12.5 µg/mL does the source give for O=c1cc(-c2ccccc2)oc2ccc(-c3ccccc3-c3cc(=O)c4ccccc4o3)cc12 here?
Answer: The inhibition at 12.5 µg/mL was 9%.

Question: How did the inhibition at 12.5 µg/mL turn out when CC(=O)Oc1ccc(C2Oc3cc(OC(C)=O)cc(OC(C)=O)c3C(=O)C2c2c(OC(C)=O)cc(OC(C)=O)c3c2OC(c2ccc(OC(C)=O)c(OC(C)=O)c2)CC3=O)cc1 (centres undefined) was run?
Answer: The inhibition at 12.5 µg/mL was 0%.

Question: How did the inhibition at 12.5 µg/mL turn out when COc1ccc(-c2cc(=O)c3c(OC)c(-c4c(OC)cc5oc(-c6ccc(OC)cc6)cc(=O)c5c4OC)c(OC)cc3o2)cc1 was run?
Answer: Its inhibition at 12.5 µg/mL is 96%.

Question: How did the inhibition at 12.5 µg/mL turn out when O=C1CC(c2ccc(O)cc2)Oc2cc(O)c(-c3c(O)cc4c(c3O)C(=O)CC(c3ccc(O)cc3)O4)c(O)c21 (centres undefined) was run?
Answer: Its inhibition at 12.5 µg/mL is 0%.

Question: For O=c1cc(-c2cccc(-c3ccc4c(=O)cc(-c5ccccc5)oc4c3)c2)oc2ccccc12, which inhibition at 12.5 µg/mL is on record?
Answer: The inhibition at 12.5 µg/mL was 0%.

Question: With COc1ccc(-c2oc3cc(OC)cc(OC)c3c(=O)c2-c2c(-c3ccc(OC)cc3)oc3cc(OC)cc(OC)c3c2=O)cc1 as the compound, how does the inhibition at 12.5 µg/mL read?
Answer: The inhibition at 12.5 µg/mL was 0%.

Question: How did the inhibition at 12.5 µg/mL turn out when O=c1cc(-c2ccccc2-c2cccc3c(=O)cc(-c4ccccc4)oc23)oc2ccccc12 was run?
Answer: Its inhibition at 12.5 µg/mL is 0%.

Question: Which inhibition at 12.5 µg/mL does the source give for CC(=O)Oc1ccc(C2CC(=O)c3c(cc(OC(C)=O)c(-c4c(OC(C)=O)cc5c(c4OC(C)=O)C(=O)CC(c4ccc(OC(C)=O)cc4)O5)c3OC(C)=O)O2)cc1 (centres undefined) here?
Answer: The inhibition at 12.5 µg/mL was 0%.

Question: Which inhibition at 12.5 µg/mL does the source give for O=C1CC(c2ccc(O)c(O)c2)Oc2c1c(O)cc(O[C@]1(O)O[C@H](CO)[C@@H](O)C(O)[C@H]1O)c2C1C(=O)c2c(O)cc(O)cc2OC1c1ccc(O)cc1 (single isomer, unassigned) here?
Answer: The inhibition at 12.5 µg/mL was 0%.

Question: Which inhibition at 12.5 µg/mL does the source give for O=C1CC(c2ccc(O)cc2)Oc2c1c(O)cc(O[C@]1(O)O[C@H](CO)[C@@H](O)C(O)[C@H]1O)c2C1C(=O)c2c(O)cc(O)cc2OC1c1ccc(O)cc1 (single isomer, unassigned) here?
Answer: Its inhibition at 12.5 µg/mL is 0%.

Question: Which inhibition at 12.5 µg/mL does the source give for O=C1c2c(O)cc(O)cc2OC(c2ccc(O)cc2)C1c1c(O[C@]2(O)O[C@H](CO)[C@@H](O)C(O)[C@H]2O)cc(O)c2c(=O)cc(-c3ccc(O)cc3)oc12 (single isomer, unassigned) here?
Answer: The inhibition at 12.5 µg/mL was 0%.

Question: With CC(=O)OC[C@H]1O[C@@](O)(Oc2cc(OC(C)=O)c3c(c2C2C(=O)c4c(OC(C)=O)cc(OC(C)=O)cc4OC2c2ccc(OC(C)=O)cc2)OC(c2ccc(OC(C)=O)cc2)CC3=O)[C@H](O)C(O)[C@@H]1O (single isomer, unassigned) as the compound, how does the inhibition at 12.5 µg/mL read?
Answer: Its inhibition at 12.5 µg/mL is 0%.

Question: How did the inhibition at 12.5 µg/mL turn out when O=c1cc(-c2ccc(O)c(-c3c(O)cc(O)c4c(=O)cc(-c5ccc(O)cc5)oc34)c2)oc2cc(O)cc(O)c12 [AMENTOFLAVONE] was run?
Answer: Its inhibition at 12.5 µg/mL is 0%.

Question: With O=c1cc(-c2ccc(Oc3c(O)cc4oc(-c5ccc(O)cc5)cc(=O)c4c3O)cc2)oc2cc(O)cc(O)c12 [HINOKIFLAVONE] as the compound, how does the inhibition at 12.5 µg/mL read?
Answer: Its inhibition at 12.5 µg/mL is 0%.

Question: With O=c1cc(-c2ccc(O)c(-c3c(O)cc4oc(-c5ccc(O)cc5)cc(=O)c4c3O)c2)oc2cc(O)cc(O)c12 [ROBUSTAFLAVONE] as the compound, how does the inhibition at 12.5 µg/mL read?
Answer: The inhibition at 12.5 µg/mL was 0%.

test system: Mycobacterium tuberculosis; assay: Minimum inhibitory concentration against Mycobacterium tuberculosis; assay type: functional

Question: With COc1ccc(-c2cc(=O)c3c(OC)cc(OC)c(C4C(=O)c5c(OC)cc(OC)cc5OC4c4ccc(OC)cc4)c3o2)cc1 (centres undefined) as the compound, how does the MIC read?
Answer: The MIC was 12.5 µg/mL (≈ 20 µM).

Question: For COc1ccc(C2CC(=O)c3c(OC)cc(OC)c(C4C(=O)c5c(OC)cc(OC)cc5OC4c4ccc(OC)cc4)c3O2)cc1 (centres undefined), which MIC is on record?
Answer: The MIC was over 12.5 µg/mL.

Question: COc1ccc(-c2cc(=O)c3c(OC)c(-c4c(OC)cc5oc(-c6ccc(OC)cc6)cc(=O)c5c4OC)c(OC)cc3o2)cc1 was tested. Which MIC did it give?
Answer: Its MIC is over 12.5 µg/mL.
